Reference: US8940771B2, “Organic compounds” (Novartis AG, priority 2007, dated 2015)

Target: PI3Kα (p85iSH2(461-568)-p110α(21-1068)-His, BV1075) (Homo sapiens (Human), UniProt P42336)
Experiment: PI3K KinaseGlo assay, PI3Kalpha
Type: biochemical
Details: for IC50: KinaseGlo, 1 μM ATP

Chain of PI3Kα (p85iSH2(461-568)-p110α(21-1068)-His, BV1075) (P42336 other isoform, or with tags, fused parts or gaps): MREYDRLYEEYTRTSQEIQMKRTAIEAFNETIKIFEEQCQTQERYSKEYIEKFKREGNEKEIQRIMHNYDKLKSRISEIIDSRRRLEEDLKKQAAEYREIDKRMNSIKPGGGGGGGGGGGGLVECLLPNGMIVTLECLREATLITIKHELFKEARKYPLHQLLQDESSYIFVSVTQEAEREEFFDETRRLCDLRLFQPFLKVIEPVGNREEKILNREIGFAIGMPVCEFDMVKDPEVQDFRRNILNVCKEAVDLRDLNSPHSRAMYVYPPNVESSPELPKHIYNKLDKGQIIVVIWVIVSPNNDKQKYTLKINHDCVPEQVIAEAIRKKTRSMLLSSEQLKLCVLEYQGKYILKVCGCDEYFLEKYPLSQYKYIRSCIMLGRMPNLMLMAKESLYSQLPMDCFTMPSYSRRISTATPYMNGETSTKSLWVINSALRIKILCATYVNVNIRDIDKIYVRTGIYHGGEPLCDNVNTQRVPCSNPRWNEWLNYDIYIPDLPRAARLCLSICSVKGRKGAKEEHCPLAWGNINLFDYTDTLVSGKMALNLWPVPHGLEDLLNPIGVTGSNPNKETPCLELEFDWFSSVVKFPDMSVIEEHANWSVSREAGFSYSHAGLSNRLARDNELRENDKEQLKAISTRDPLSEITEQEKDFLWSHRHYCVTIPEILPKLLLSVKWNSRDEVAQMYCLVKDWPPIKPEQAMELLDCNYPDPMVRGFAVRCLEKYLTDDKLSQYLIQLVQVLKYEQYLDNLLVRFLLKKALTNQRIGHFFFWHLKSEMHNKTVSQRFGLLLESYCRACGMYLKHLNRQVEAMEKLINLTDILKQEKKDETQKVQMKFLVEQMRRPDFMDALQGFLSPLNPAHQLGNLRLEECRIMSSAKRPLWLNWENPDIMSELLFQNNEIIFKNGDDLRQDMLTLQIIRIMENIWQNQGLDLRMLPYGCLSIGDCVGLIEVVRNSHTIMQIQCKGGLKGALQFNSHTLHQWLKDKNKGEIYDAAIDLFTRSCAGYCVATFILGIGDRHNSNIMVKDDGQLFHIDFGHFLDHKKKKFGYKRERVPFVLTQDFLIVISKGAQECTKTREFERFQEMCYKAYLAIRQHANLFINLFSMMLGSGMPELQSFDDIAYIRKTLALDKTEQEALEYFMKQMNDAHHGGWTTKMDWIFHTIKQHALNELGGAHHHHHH

| SMILES | IC50 (10 nM enzyme, 30 mins) [nM] | further results |
| --- | --- | --- |
| COC[C@@]1(C(N)=O)CCCN1C(=O)Nc1nc(C)c(-c2ccnc(C(C)(C)C)n2)s1 [Example 112, (R)-2-Methoxymethyl-pyrrolidine-1,2-dicarboxylic acid 2-amide 1-{[5-(2-tert-butyl-pyrimidin-4-yl)-4-methyl-thiazol-2-yl]-amide}] | 49 |  |
| Cc1nc(NC(=O)N2C[C@H]3C[C@H]3[C@H]2C(N)=O)sc1-c1ccnc(C(C)(C)C)n1 [Example 11, (1R,2S,5S)-3-aza-bicyclo[3.1.0]hexane-2,3-dicarboxylic acid 2-amide 3-{[5-(2-tert-butyl-pyrimidin-4-yl)-4-methyl-thiazol-2-yl]-amide}] | 48 |  |
| Cc1nc(NC(=O)N2CCC[C@]2(C(N)=O)C(F)F)sc1-c1ccnc(C(C)(C)C)n1 [Example 114, (S)-2-Difluoromethyl-pyrrolidine-1,2-dicarboxylic acid 2-amide 1-{[5-(2-tert-butyl-pyrimidin-4-yl)-4-methyl-thiazol-2-yl]-amide}] | 130 |  |
| COc1ccc(C2(c3cc(-c4sc(NC(=O)N5CCC[C@@]5(C)C(N)=O)nc4C)ccn3)CC2)cc1 [Example 54, (S)-2-Methyl-pyrrolidine-1,2-dicarboxylic acid 2-amide 1-[(5-{2-[1-(4-methoxy-phenyl)-cyclopropyl]-pyridin-4-yl}-4-methyl-thiazol-2-yl)-amide]] | 190 |  |
| Cc1nc(NC(=O)N2CC(F)(F)C[C@H]2C(N)=O)sc1-c1ccnc(C2(C)CC2)c1 [Example 59, S)-4,4-Difluoro-pyrrolidine-1,2-dicarboxylic acid 2-amide 1-({4-methyl-5-[2-(1-methyl-cyclopropyl)-pyridin-4-yl]-thiazol-2-yl}-amide] | 71 |  |
| [2H]C([2H])([2H])C(c1nccc(-c2sc(NC(=O)N3CCC[C@@]3(C)C(N)=O)nc2C)n1)(C([2H])([2H])[2H])C([2H])([2H])[2H] [Example 111] | 52 |  |
| Cc1nc(NC(=O)N2CC[C@H](O)[C@H]2C(N)=O)sc1-c1ccnc(C(C)(C)C)n1.O=C(O)C(F)(F)F [Example 9, (2S,3S)-3-hydroxy-pyrrolidine-1,2-dicarboxylic acid 2-amide 1-{[5-(2-tert-butyl-pyrimidin-4-yl)-4-methyl-thiazol-2-yl]-amide}triflouroacetate] |  | IC50 (alpha vs. delta selectivity table): 12 nM; Selectivity PI3Kalpha vs. PI3Kdelta (ratio of PI3Kdelta IC50 to PI3Kalpha IC50): 38-fold |
| CSc1nccc(-c2sc(NC(=O)N3CCC[C@@]3(C)C(N)=O)nc2C)n1 [Example 74, (S)-2-Methyl-pyrrolidine-1,2-dicarboxylic acid 2-amide 1-{[4-methyl-5-(2-methylsulphanyl-pyrimidin-4-yl)-thiazol-2-yl]-amide}] | 130 |  |
| CC1(c2cc(-c3cnc(NC(=O)N4CCC[C@@]4(C)C(N)=O)s3)ccn2)CC1 [Example 117, S)-2-Methyl-pyrrolidine-1,2-dicarboxylic acid 2-amide 1-({5-[2-(1-methyl-cyclopropyl)-pyridin-4-yl]-thiazol-2-yl}amide] | 26 |  |
| CCN(CC)c1nccc(-c2sc(NC(=O)N3CC[C@@H]4C[C@@]43C(N)=O)nc2C)n1 [Example 88, (1S,5R)-2-Aza-bicyclo[3.1.0]hexane-1,2-dicarboxylic acid 1-amide 2-{[5-(2-diethylamino-pyrimidin-4-yl)-4-methyl-thiazol-2-yl]-amide}] | 76 |  |
| Cc1nc(NC(=O)N2CCC[C@@]2(C)C(N)=O)sc1-c1ccnc(-n2ccnc2C)n1 [Example 102, S)-2-Methyl-pyrrolidine-1,2-dicarboxylic acid 2-amide 1-({4-methyl-5-[2-(2-methyl-imidazol-1-yl)-pyrimidin-4-yl]-thiazol-2-yl}-amide] | 210 |  |
| CCN(CCOC)c1nccc(-c2sc(NC(=O)N3CCC[C@@]3(C)C(N)=O)nc2C)n1 [Example 101, (S)-2-Methyl-pyrrolidine-1,2-dicarboxylic acid 2-amide 1-[(5-{2-[ethyl-(2-methoxy-ethyl)-amino]-pyrimidin-4-yl}-4-methyl-thiazol-2-yl)-amide]] | 99 |  |
| CCN(CC)c1cc(-c2cnc(NC(=O)N3CCC[C@@]3(C)C(N)=O)s2)ccn1 [Example 122, (S)-2-Methyl-pyrrolidine-1,2-dicarboxylic acid 2-amide 1-{[5-(2-diethylamino-pyridin-4-yl)-thiazol-2-yl]-amide}] | 50 |  |

Second part, led by results:

| IC50 (10 nM enzyme, 30 mins) [nM] | SMILES | further results |
| --- | --- | --- |
| 15 | Cc1nc(NC(=O)N2C[C@@H](O)C[C@H]2C(N)=O)sc1-c1ccnc(C(C)(C)C)c1 [Example 7, (2S,4S)-4-hydroxy-pyrrolidine-1,2-dicarboxylic acid 2-amide 1-{[5-(2-tert-butyl-pyridin-4-yl)-4-methyl-thiazol-2-yl]-amide}] |  |
| 13 | Cc1nc(NC(=O)N2C[C@H](O)C[C@H]2C(N)=O)sc1-c1ccnc(C(C)(C)C)n1 [Example 3, (2S,4R)-4-hydroxy-pyrrolidine-1,2-dicarboxylic acid 2-amide 1-{[5-(2-tert-butyl-pyrimidin-4-yl)-4-methyl-thiazol-2-yl]-amide}triflouroacetate] |  |
| 9 | Cc1nc(NC(=O)N2CCC[C@@]2(C)C(N)=O)sc1-c1ccnc(C2(C(F)(F)F)CC2)c1 [Example 46, S)-2-Methyl-pyrrolidine-1,2-dicarboxylic acid 2-amide 1-({4-methyl-5-[2-(1-trifluoromethyl-cyclopropyl)-pyridin-4-yl]-thiazol-2-yl}-amide] |  |
| 5 | Cc1nc(NC(=O)N2CCC[C@@]2(C)C(N)=O)sc1-c1ccnc(C2(C(F)(F)F)CCC2)c1 [Example 48, S)-2-Methyl-pyrrolidine-1,2-dicarboxylic acid 2-amide 1-({4-methyl-5-[2-(1-trifluoromethyl-cyclobutyl)-pyridin-4-yl]-thiazol-2-yl}-amide] |  |
| 40 | Cc1nc(NC(=O)N2CCC[C@@]2(C)C(N)=O)sc1-c1ccnc(C(C)(C)C(F)(F)F)c1 [Example 47, S)-2-Methyl-pyrrolidine-1,2-dicarboxylic acid 2-amide 1-({4-methyl-5-[2-(2,2,2-trifluoro-1,1-dimethyl-ethyl)-pyridin-4-yl]-thiazol-2-yl}-amide] |  |
| 24 | CC1(c2cc(-c3sc(NC(=O)N4CCC[C@@]4(C)C(N)=O)nc3Cl)ccn2)CC1 [Example 129, S)-2-Methyl-pyrrolidine-1,2-dicarboxylic acid 2-amide 1-({4-chloro-5-[2-(1-methyl-cyclopropyl)-pyridin-4-yl]-thiazol-2-yl}-amide] |  |
| 28 | COc1ccc(C(C)(C)c2cc(-c3cnc(NC(=O)N4CCC[C@@]4(C)C(N)=O)s3)ccn2)cc1 [Example 124, (S)-2-Methyl-pyrrolidine-1,2-dicarboxylic acid 2-amide 1-[(5-{2-[1-(4-methoxy-phenyl)-1-methyl-ethyl]-pyridin-4-yl}-thiazol-2-yl)-amide]] |  |
| 44 | Cc1nc(NC(=O)N2CCC[C@@]2(CN(C)C)C(N)=O)sc1-c1ccnc(C(C)(C)C)n1 [Example 107, (R)-2-Dimethylaminomethyl-pyrrolidine-1,2-dicarboxylic acid 2-amide 1-{[5-(2-tert-butyl-pyrimidin-4-yl)-4-methyl-thiazol-2-yl]-amide}] |  |
| 37 | Cc1nc(NC(=O)N2CCC[C@@]2(C)C(N)=O)sc1-c1ccnc(C2(C)CC2)c1 [Example 40, S)-2-Methyl-pyrrolidine-1,2-dicarboxylic acid 2-amide 1-({4-methyl-5-[2-(1-methyl-cyclopropyl)-pyridin-4-yl]-thiazol-2-yl}-amide] |  |
